Reference: patent US9833497B2, “Human originated EGF domain proteins and use of the same” (CHENGDU SOURCEBIO LIMITED-LIABILITY COMPANY, priority 2013, dated 2017)

Assays:
Format in all cases: cell-based
Serratia marcescens = assay: MIC against Gram-negative bacteria: Serratia marcescens; details: for MIC S. marcescens / MIC (μg/mL) S. marcescens / MIC against S. marcescens: 5×10^5 CFU/mL; for MIC S. marcescens: two-fold serial dilution
Outline: (§1)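 Growth inhibition by human EGF domain proteins was scored in LB liquid culture seeded at 5×10^5 CFU/mL. Protein was applied as a two-fold dilution series in triplicate, with shaking incubation at 37° C; MIC is the lowest concentration giving no growth.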

E. coli BL21 = assay: MIC against Gram-negative bacteria: E. coli BL21; details: for MIC E. coli BL21 / MIC (μg/mL) E. coli BL21 / MIC against E. coli BL21: 5×10^5 CFU/mL; for MIC E. coli BL21: two-fold serial dilution
Outline: as §1

Citrobacter diversus = assay: MIC against Gram-negative bacteria: Citrobacter diversus; details: for MIC C. diversus / MIC (μg/mL) C. diversus / MIC against C. diversus: 5×10^5 CFU/mL; for MIC C. diversus: two-fold serial dilution
Outline: as §1

Proteus mirabilis = assay: MIC against Gram-negative bacteria: Proteus mirabilis; details: for MIC P. mirabilis / MIC (μg/mL) P. mirabilis / MIC against P. mirabilis: 5×10^5 CFU/mL; for MIC P. mirabilis: two-fold serial dilution
Outline: as §1

Proteus vulgaris = assay: MIC against Gram-negative bacteria: Proteus vulgaris; details: for MIC P. vulgaris / MIC (μg/mL) P. vulgaris / MIC against P. vulgaris: 5×10^5 CFU/mL; for MIC P. vulgaris: two-fold serial dilution
Outline: as §1

Aeromonas hydrophila = assay: MIC against Gram-negative bacteria: Aeromonas hydrophila; details: for MIC A. hydrophila / MIC (μg/mL) A. hydrophila / MIC against A. hydrophila: 5×10^5 CFU/mL; for MIC A. hydrophila: two-fold serial dilution
Outline: as §1

Enterobacter cloacae = assay: MIC against Gram-negative bacteria: Enterobacter cloacae; details: for MIC E. cloacae / MIC (μg/mL) E. cloacae / MIC against E. cloacae: 5×10^5 CFU/mL; for MIC E. cloacae: two-fold serial dilution
Outline: as §1

Pseudomonas aeruginosa = assay: MIC against Gram-negative bacteria: Pseudomonas aeruginosa; details: for MIC P. aeruginosa / MIC (μg/mL) P. aeruginosa / MIC against P. aeruginosa: 5×10^5 CFU/mL; for MIC P. aeruginosa: two-fold serial dilution
Outline: as §1

Moraxella catarrhalis = assay: MIC against Gram-negative bacteria: Moraxella catarrhalis; details: for MIC M. catarrhalis / MIC (μg/mL) M. catarrhalis / MIC against M. catarrhalis: 5×10^5 CFU/mL; for MIC M. catarrhalis: two-fold serial dilution
Outline: as §1

Klebsiella pneumonia = assay: MIC against Gram-negative bacteria: Klebsiella pneumonia; details: for MIC K. pneumonia / MIC (μg/mL) K. pneumonia / MIC against K. pneumonia: 5×10^5 CFU/mL; for MIC K. pneumonia: two-fold serial dilution
Outline: as §1

E. coli DH5α = assay: Antibacterial activity: MIC and growth curve against E. coli DH5α in 96-well plate; details: minimal inhibitory concentration against E. coli DH5α; 96-well plate, 5×10^5 CFU/mL, 37° C., judged after 8 h
Outline: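 MIC taken as lowest protein level with no bacterial growth, tracked by A600 every 30 min during 37 °C, 175 rpm culture. Two-fold protein series 50-12.5 μg/mL final, triplicate wells, against 5×10^5 CFU/mL of LB-washed mid-log cells.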

[1] = S. marcescens, 10 h cultivation at 37° C.
[2] = E. coli BL21, 10 h cultivation at 37° C.
[3] = C. diversus, 10 h cultivation at 37° C.
[4] = P. mirabilis, 10 h cultivation at 37° C.
[5] = P. vulgaris, 10 h cultivation at 37° C.
[6] = A. hydrophila, 10 h cultivation at 37° C.
[7] = E. cloacae, 10 h cultivation at 37° C.
[8] = P. aeruginosa, 10 h cultivation at 37° C.
[9] = M. catarrhalis, 10 h cultivation at 37° C.
[10] = K. pneumonia, 10 h cultivation at 37° C.

For “PRT1185 (REFQCDAYTCSNGGTCYDSGDTFRCACPPGWKGSTCA; listed as Homo sapiens)”, the “MIC S. marcescens” value (Serratia marcescens; 10 h cultivation at 37° C.) was 12.5 µg/mL, the “MIC E. coli BL21” value (E. coli BL21; 10 h cultivation at 37° C.) was 12.5 µg/mL and the “MIC C. diversus” value (Citrobacter diversus; 10 h cultivation at 37° C.) was 12.5 µg/mL. For the same substance, the “MIC P. mirabilis” value (Proteus mirabilis; 10 h cultivation at 37° C.) was 12.5 µg/mL, the “MIC P. vulgaris” value (Proteus vulgaris; 10 h cultivation at 37° C.) was 50 µg/mL and the “MIC A. hydrophila” value (Aeromonas hydrophila; 10 h cultivation at 37° C.) was 50 µg/mL. For the same substance, the “MIC E. cloacae” value (Enterobacter cloacae; 10 h cultivation at 37° C.) was 12.5 µg/mL, the “MIC P. aeruginosa” value (Pseudomonas aeruginosa; 10 h cultivation at 37° C.) was 25 µg/mL and the “MIC M. catarrhalis” value (Moraxella catarrhalis; 10 h cultivation at 37° C.) was 50 µg/mL. For the same substance, the “MIC K. pneumonia” value (Klebsiella pneumonia; 10 h cultivation at 37° C.) was 50 µg/mL and the MIC (E. coli DH5α) was 50 µg/mL.
“PRT1032 (DVNECDIPGHCQHGGTCLNLPGSYQCQCLQGFTGQYCD; listed as Homo sapiens)” gave an MIC (Serratia marcescens; [1]) of 25 µg/mL, an MIC (E. coli BL21; [2]) of 12.5 µg/mL and an MIC (Citrobacter diversus; [3]) of 25 µg/mL. For the same substance, the MIC (Proteus mirabilis; [4]) was 25 µg/mL, the MIC (Proteus vulgaris; [5]) was 12.5 µg/mL and the MIC (Aeromonas hydrophila; [6]) was 12.5 µg/mL. For the same substance, the MIC (Enterobacter cloacae; [7]) was 50 µg/mL, the MIC (Pseudomonas aeruginosa; [8]) was 50 µg/mL and the MIC (Moraxella catarrhalis; [9]) was 50 µg/mL. For the same substance, the MIC (Klebsiella pneumonia; [10]) was 12.5 µg/mL and the MIC (E. coli DH5α) was 50 µg/mL.
In the case of “PRT804 (HGAHCELRCPCQNGGTCHHITGECACPPGWTGAVCA; listed as Homo sapiens)”, the “MIC (μg/mL) S. marcescens” value (Serratia marcescens; [1]) is reported as 50 µg/mL, the “MIC (μg/mL) E. coli BL21” value (E. coli BL21; [2]) is reported as 50 µg/mL and the “MIC (μg/mL) C. diversus” value (Citrobacter diversus; [3]) is reported as 12.5 µg/mL. For the same substance, the “MIC (μg/mL) P. mirabilis” value (Proteus mirabilis; [4]) was 12.5 µg/mL, the “MIC (μg/mL) P. vulgaris” value (Proteus vulgaris; [5]) was 25 µg/mL and the “MIC (μg/mL) A. hydrophila” value (Aeromonas hydrophila; [6]) was 12.5 µg/mL. For the same substance, the “MIC (μg/mL) E. cloacae” value (Enterobacter cloacae; [7]) was 12.5 µg/mL, the “MIC (μg/mL) P. aeruginosa” value (Pseudomonas aeruginosa; [8]) was 12.5 µg/mL and the “MIC (μg/mL) M. catarrhalis” value (Moraxella catarrhalis; [9]) was 50 µg/mL. The “MIC (μg/mL) K. pneumonia” value (Klebsiella pneumonia; [10]) was 50 µg/mL and the MIC (E. coli DH5α) was 12.5 µg/mL.
In the case of “PRT465 (ALDPCASGPCLNGGSCSNTQDPQSYHCSCPRAFTGKDCG; listed as Homo sapiens)”, the “MIC against S. marcescens” value (Serratia marcescens; 96-well plate, 37° C., 10 h) is reported as 50 µg/mL, the “MIC against E. coli BL21” value (E. coli BL21; 96-well plate, 37° C., 10 h) is reported as 12.5 µg/mL and the “MIC against C. diversus” value (Citrobacter diversus; 96-well plate, 37° C., 10 h) is reported as 50 µg/mL. The “MIC against P. mirabilis” value (Proteus mirabilis; 96-well plate, 37° C., 10 h) was 50 µg/mL, the “MIC against P. vulgaris” value (Proteus vulgaris; 96-well plate, 37° C., 10 h) was 12.5 µg/mL and the “MIC against A. hydrophila” value (Aeromonas hydrophila; 96-well plate, 37° C., 10 h) was 12.5 µg/mL. For the same substance, the “MIC against E. cloacae” value (Enterobacter cloacae; 96-well plate, 37° C., 10 h) was 50 µg/mL, the “MIC against P. aeruginosa” value (Pseudomonas aeruginosa; 96-well plate, 37° C., 10 h) was 50 µg/mL and the “MIC against M. catarrhalis” value (Moraxella catarrhalis; 96-well plate, 37° C., 10 h) was 12.5 µg/mL. The “MIC against K. pneumonia” value (Klebsiella pneumonia; 96-well plate, 37° C., 10 h) was 12.5 µg/mL and the MIC (E. coli DH5α) was 50 µg/mL.
In the case of “PRT1184 (NPNDCLPDPCHSRGRCYDLVNDFYCACDDGWKGKTCH; listed as Homo sapiens)”, the “MIC S. marcescens” value (Serratia marcescens; 10 h cultivation at 37° C.) is reported as 25 µg/mL, the “MIC E. coli BL21” value (E. coli BL21; 10 h cultivation at 37° C.) is reported as 25 µg/mL and the “MIC C. diversus” value (Citrobacter diversus; 10 h cultivation at 37° C.) is reported as 25 µg/mL. For the same substance, the “MIC P. mirabilis” value (Proteus mirabilis; 10 h cultivation at 37° C.) was 25 µg/mL, the “MIC P. vulgaris” value (Proteus vulgaris; 10 h cultivation at 37° C.) was 12.5 µg/mL and the “MIC A. hydrophila” value (Aeromonas hydrophila; 10 h cultivation at 37° C.) was 12.5 µg/mL. For the same substance, the “MIC E. cloacae” value (Enterobacter cloacae; 10 h cultivation at 37° C.) was 50 µg/mL, the “MIC P. aeruginosa” value (Pseudomonas aeruginosa; 10 h cultivation at 37° C.) was 12.5 µg/mL and the “MIC M. catarrhalis” value (Moraxella catarrhalis; 10 h cultivation at 37° C.) was 50 µg/mL. For the same substance, the “MIC K. pneumonia” value (Klebsiella pneumonia; 10 h cultivation at 37° C.) was 25 µg/mL and the MIC (E. coli DH5α) was 50 µg/mL.
For “PRT1482 (LCSFGCGSGICIAPNVCSCQDGEQGATCP; listed as Homo sapiens)”, the “MIC against S. marcescens” value (Serratia marcescens; Serratia marcescens, 10 h cultivation at 37° C.) was 25 µg/mL, the “MIC against E. coli BL21” value (E. coli BL21; [2]) was 50 µg/mL and the “MIC against C. diversus” value (Citrobacter diversus; Citrobacter diversus, 10 h cultivation at 37° C.) was 12.5 µg/mL. The “MIC against P. mirabilis” value (Proteus mirabilis; Proteus mirabilis, 10 h cultivation at 37° C.) was 50 µg/mL, the “MIC against P. vulgaris” value (Proteus vulgaris; Proteus vulgaris, 10 h cultivation at 37° C.) was 25 µg/mL and the “MIC against A. hydrophila” value (Aeromonas hydrophila; Aeromonas hydrophila, 10 h cultivation at 37° C.) was 50 µg/mL. The “MIC against E. cloacae” value (Enterobacter cloacae; Enterobacter cloacae, 10 h cultivation at 37° C.) was 12.5 µg/mL, the “MIC against P. aeruginosa” value (Pseudomonas aeruginosa; Pseudomonas aeruginosa, 10 h cultivation at 37° C.) was 12.5 µg/mL and the “MIC against M. catarrhalis” value (Moraxella catarrhalis; Moraxella catarrhalis, 10 h cultivation at 37° C.) was 25 µg/mL. The “MIC against K. pneumonia” value (Klebsiella pneumonia; Klebsiella pneumonia, 10 h cultivation at 37° C.) was 50 µg/mL and the MIC (E. coli DH5α) was 12.5 µg/mL.
“PRT217 (DIDECTIPPYCHQRCVNTPGSFYCQCSPGFQLAANNYTCV; listed as Homo sapiens)” was tested, and the “MIC (μg/mL) S. marcescens” value (Serratia marcescens; [1]) was 50 µg/mL, the “MIC (μg/mL) E. coli BL21” value (E. coli BL21; [2]) was 25 µg/mL and the “MIC (μg/mL) C. diversus” value (Citrobacter diversus; [3]) was 12.5 µg/mL. For the same substance, the “MIC (μg/mL) P. mirabilis” value (Proteus mirabilis; [4]) was 12.5 µg/mL, the “MIC (μg/mL) P. vulgaris” value (Proteus vulgaris; [5]) was 12.5 µg/mL and the “MIC (μg/mL) A. hydrophila” value (Aeromonas hydrophila; [6]) was 25 µg/mL. The “MIC (μg/mL) E. cloacae” value (Enterobacter cloacae; [7]) was 12.5 µg/mL, the “MIC (μg/mL) P. aeruginosa” value (Pseudomonas aeruginosa; [8]) was 12.5 µg/mL and the “MIC (μg/mL) M. catarrhalis” value (Moraxella catarrhalis; [9]) was 12.5 µg/mL. For the same substance, the “MIC (μg/mL) K. pneumonia” value (Klebsiella pneumonia; [10]) was 25 µg/mL and the MIC (E. coli DH5α) was 12.5 µg/mL.
